Measurements as given in ChEMBL document CHEMBL1201862, “PubChem BioAssay data set” (2004).
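Grown in 96-well plates, cells were treated for 48 hours with each compound at five concentrations. Insufficient inhibition: endpoint recorded as highest concentration tested. At the GI50, growth is halved.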 The source made the active and inactive calls. No stated cut-off is given here; in the data, active = GI50 up to about 1.1 µM and inactive = higher.

How the values were obtained:
Test in all cases: inhibition of tumour cell growth, NCI panel, 48 h
HL-60 = test system: HL-60
CAKI-1 = test system: CAKI-1
KM12 = test system: KM12
HOP-18 = test system: HOP-18
SNB-19 = test system: SNB-19
A498 = test system: A498
IGROV-1 = test system: IGROV-1
SF-539 = test system: SF-539
SNB-75 = test system: SNB-75
DLD-1 = test system: DLD-1
OVCAR-8 = test system: OVCAR-8
MOLT-4 = test system: MOLT-4
786-0 = test system: 786-0
COLO 205 = test system: COLO 205
HCC 2998 = test system: HCC 2998
M19-MEL = test system: M19-MEL
K562 = test system: K562
HT-29 = test system: HT-29
SF-295 = test system: SF-295
UACC-62 = test system: UACC-62
DMS-114 = test system: DMS-114
HCT-15 = test system: HCT-15
RXF 631 = test system: RXF 631
TK-10 = test system: TK-10
OVCAR-3 = test system: OVCAR-3
UO-31 = test system: UO-31
OVCAR-4 = test system: OVCAR-4
SK-MEL-5 = test system: SK-MEL-5
HOP-62 = test system: HOP-62
SK-MEL-28 = test system: SK-MEL-28
RPMI-8226 = test system: RPMI-8226
KM-20L2 = test system: KM-20L2
NCI-H460 = test system: NCI-H460
NCI-H522 = test system: NCI-H522
DMS-273 = test system: DMS-273
UACC-257 = test system: UACC-257
SW-620 = test system: SW-620
NCI-H226 = test system: NCI-H226
OVCAR-5 = test system: OVCAR-5
M14 = test system: M14
CCRF-CEM = test system: CCRF-CEM
LOX IMVI = test system: LOX IMVI
SK-OV-3 = test system: SK-OV-3
A549 = test system: A549
RXF 393 = test system: RXF 393
NCI-H23 = test system: NCI-H23
U-251 = test system: U-251
Malme-3M = test system: Malme-3M
LXFL 529 = test system: LXFL 529
SN12C = test system: SN12C
EKVX = test system: EKVX
SK-MEL-2 = test system: SK-MEL-2
ACHN = test system: ACHN
SF-268 = test system: SF-268
HOP-92 = test system: HOP-92
SNB-78 = test system: SNB-78
SR = test system: SR
HCT-116 = test system: HCT-116

Cc1cc(Cl)ccc1NC(=O)CC1SC(N)=NC1=O (configuration not stated)
GI50 (HL-60): > 100 µM (inactive) | GI50 (CAKI-1): > 100 µM (inactive) | GI50 (KM12): > 100 µM (inactive) | GI50 (HOP-18): > 100 µM (inactive) | GI50 (SNB-19): > 100 µM (inactive) | GI50 (A498): 17.7 µM (inactive) | GI50 (IGROV-1): > 100 µM (inactive) | GI50 (SF-539): > 100 µM (inactive) | GI50 (SNB-75): > 100 µM (inactive) | GI50 (DLD-1): > 100 µM (inactive) | GI50 (OVCAR-8): > 100 µM (inactive) | GI50 (MOLT-4): > 100 µM (inactive) | GI50 (786-0): > 100 µM (inactive) | GI50 (COLO 205): > 100 µM (inactive) | GI50 (HCC 2998): > 100 µM (inactive) | GI50 (M19-MEL): > 100 µM (inactive) | GI50 (K562): > 100 µM (inactive) | GI50 (HT-29): > 100 µM (inactive) | GI50 (SF-295): > 100 µM (inactive) | GI50 (UACC-62): > 100 µM (inactive) | GI50 (DMS-114): > 100 µM (inactive) | GI50 (HCT-15): > 100 µM | GI50 (RXF 631): > 100 µM (inactive) | GI50 (TK-10): > 100 µM (inactive) | GI50 (OVCAR-3): > 100 µM (inactive) | GI50 (UO-31): > 100 µM (inactive) | GI50 (OVCAR-4): > 100 µM (inactive) | GI50 (SK-MEL-5): > 100 µM (inactive) | GI50 (HOP-62): > 100 µM (inactive) | GI50 (SK-MEL-28): > 100 µM (inactive) | GI50 (RPMI-8226): > 100 µM (inactive) | GI50 (KM-20L2): > 100 µM (inactive) | GI50 (NCI-H460): > 100 µM (inactive) | GI50 (NCI-H522): > 100 µM (inactive) | GI50 (DMS-273): > 100 µM (inactive) | GI50 (UACC-257): > 100 µM (inactive) | GI50 (SW-620): > 100 µM (inactive) | GI50 (NCI-H226): > 100 µM (inactive) | GI50 (OVCAR-5): > 100 µM (inactive) | GI50 (M14): > 100 µM (inactive) | GI50 (CCRF-CEM): 66.4 µM (inactive) | GI50 (LOX IMVI): > 100 µM (inactive) | GI50 (SK-OV-3): > 100 µM (inactive) | GI50 (A549): > 100 µM (inactive) | GI50 (RXF 393): > 100 µM (inactive) | GI50 (NCI-H23): > 100 µM (inactive) | GI50 (U-251): > 100 µM (inactive) | GI50 (Malme-3M): > 100 µM (inactive) | GI50 (LXFL 529): > 100 µM (inactive) | GI50 (SN12C): > 100 µM (inactive) | GI50 (EKVX): > 100 µM (inactive) | GI50 (SK-MEL-2): > 100 µM (inactive) | GI50 (ACHN): > 100 µM (inactive) | GI50 (SF-268): > 100 µM (inactive)

CC1=C2C(c3ccccc3)(c3ccccc3)C3C=CC2(C=N3)N(C(=O)NC2CCCCC2)C1=O (configuration not stated)
GI50 (HOP-92): 13.4 µM (inactive) | GI50 (HL-60): 14.7 µM (inactive) | GI50 (CAKI-1): 12.6 µM (inactive) | GI50 (SNB-78): 16.3 µM (inactive) | GI50 (KM12): 18.1 µM (inactive) | GI50 (HOP-18): 18.7 µM (inactive) | GI50 (SNB-19): 17.6 µM (inactive) | GI50 (A498): 17.5 µM (inactive) | GI50 (IGROV-1): 18.9 µM (inactive) | GI50 (SF-539): 15.9 µM (inactive) | GI50 (OVCAR-8): 17.9 µM (inactive) | GI50 (MOLT-4): 17.4 µM (inactive) | GI50 (786-0): 15.4 µM (inactive) | GI50 (COLO 205): 15.9 µM (inactive) | GI50 (HCC 2998): 17.9 µM (inactive) | GI50 (K562): 17.5 µM (inactive) | GI50 (SF-295): 16.9 µM (inactive) | GI50 (UACC-62): 18.7 µM (inactive) | GI50 (DMS-114): 17.9 µM (inactive) | GI50 (HCT-15): 16.4 µM | GI50 (RXF 631): 12.7 µM (inactive) | GI50 (OVCAR-3): 14.8 µM (inactive) | GI50 (UO-31): 14.3 µM (inactive) | GI50 (SR): 17.1 µM (inactive) | GI50 (OVCAR-4): 17.6 µM (inactive) | GI50 (SK-MEL-5): 16.8 µM (inactive) | GI50 (HOP-62): 17.5 µM (inactive) | GI50 (SK-MEL-28): 16.7 µM (inactive) | GI50 (RPMI-8226): 15.9 µM (inactive) | GI50 (KM-20L2): 16.8 µM (inactive) | GI50 (DMS-273): 17.9 µM (inactive) | GI50 (UACC-257): 17.1 µM (inactive) | GI50 (SW-620): 17.3 µM (inactive) | GI50 (OVCAR-5): 17.7 µM (inactive) | GI50 (M14): 17.5 µM (inactive) | GI50 (CCRF-CEM): 16.5 µM (inactive) | GI50 (LOX IMVI): 15.7 µM (inactive) | GI50 (SK-OV-3): 28.7 µM (inactive) | GI50 (A549): 16.9 µM (inactive) | GI50 (NCI-H23): 18.4 µM (inactive) | GI50 (U-251): 16.6 µM (inactive) | GI50 (Malme-3M): 17.4 µM (inactive) | GI50 (LXFL 529): 16.6 µM (inactive) | GI50 (SN12C): 17.6 µM (inactive) | GI50 (EKVX): 14.8 µM (inactive) | GI50 (ACHN): 19.5 µM (inactive) | GI50 (SF-268): 17.4 µM (inactive) | GI50 (HCT-116): 16 µM (inactive)
